For 33 molecules, IC50 results are on record in patent publication US7704995B2 (Exelixis, Inc., priority 2003, dated 2010).

For this assay, the target named is T1, Chk1 (Homo sapiens, UniProt O14757).
T1 construct: purchased Upstate Biotechnology
T1 sequence (O14757 1-476): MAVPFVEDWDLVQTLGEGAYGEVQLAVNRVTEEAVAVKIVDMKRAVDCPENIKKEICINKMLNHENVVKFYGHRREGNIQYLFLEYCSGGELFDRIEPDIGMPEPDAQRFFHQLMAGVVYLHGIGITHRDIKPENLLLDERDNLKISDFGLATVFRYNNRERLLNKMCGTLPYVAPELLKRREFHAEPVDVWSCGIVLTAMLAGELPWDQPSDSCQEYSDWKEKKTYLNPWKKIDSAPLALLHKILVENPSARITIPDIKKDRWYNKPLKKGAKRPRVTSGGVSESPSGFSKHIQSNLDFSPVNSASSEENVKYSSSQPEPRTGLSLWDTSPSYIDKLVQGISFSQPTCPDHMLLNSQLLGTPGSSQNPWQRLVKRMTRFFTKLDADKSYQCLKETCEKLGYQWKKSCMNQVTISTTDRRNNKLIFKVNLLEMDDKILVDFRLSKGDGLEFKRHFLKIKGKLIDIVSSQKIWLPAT
Put plainly: Chk1 kinase assay: incorporation of γ-33P ATP into immobilized myelin basic protein. The assay is classed as biochemical. Conditions: read-out: Chk1 IC50. The gist of the method: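 Radiometric filter-free format: Chk1 10 nM, 10 μM ATP; Chk2 20 nM, 30 μM ATP; γ-33P ATP tracer; immobilized MBP substrate; Hepes pH 7.6, 10 mM MgCl2, 1 mM DTT; 1 h RT; 1% DMSO. Scintillation counting of washed plates. IC50/Ki from curve fit.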

pIC50: −log10 of the molar value. Where two headings read alike, the source gives them in different places.

As for `CNC(=O)c1nc(-c2cccc(CNCc3ccc(-c4cccs4)cc3)c2)cnc1N` [Example 422, 3-amino-N-methyl-6-{3-[({[4-(2-thienyl)phenyl]methyl}amino)methyl]phenyl}pyrazine-2-carboxamide], the pIC50 was more than 7.30.
The same measure, in the same setting: to `CNC(=O)c1nc(-c2cccc(CNCc3cccc(-c4csnn4)c3)c2)cnc1N` [Example 423, 3-amino-N-methyl-6-{3-[({[3-(1,2,3-thiadiazol-4-yl)phenyl]methyl}amino)methyl]phenyl}pyrazine-2-carboxamide] belongs 6.00 to 7.30; to `CCCc1ccc(CNC(=O)c2cccc(-c3cnc(N)c(C(=O)NC)n3)c2)cc1` [Example 424, 3-amino-N-methyl-6-[3-({[(4-propylphenyl)methyl]amino}carbonyl)phenyl]pyrazine-2-carboxamide], 6.00 to 7.30; to `CNC(=O)c1nc(-c2cccc(CNCc3ccc(Cl)cc3F)c2)cnc1N` [Example 425, 3-amino-6-[3-({[(4-chloro-2-fluorophenyl)methyl]amino}methyl)phenyl]-N-methylpyrazine-2-carboxamide], 6.00 to 7.30.
On the same count and under the same terms, the value for `CNC(=O)c1nc(-c2cccc(CNCc3cccc(C(F)(F)F)c3)c2)cnc1N` [Example 426, 3-amino-N-methyl-6-{3-[({[3-(trifluoromethyl)phenyl]methyl}amino)methyl]phenyl}pyrazine-2-carboxamide] was 6.00 to 7.30.
As to `CNC(=O)c1nc(-c2cccc(CN[C@@H](C)c3ccccc3)c2)cnc1N` [Example 427, 3-amino-N-methyl-6-[3-({[(1S)-1-phenylethyl]amino}methyl)phenyl]pyrazine-2-carboxamide], the negative-log IC50 (pIC50) (Table 11, Chk1 only) was 6.00 to 7.30.
In the case of `CNC(=O)c1nc(-c2cccc(CN[C@@H](CO)c3ccccc3)c2)cnc1N` [Example 428, 3-amino-6-[3-({[(1R)-2-hydroxy-1-phenylethyl]amino}methyl)phenyl]-N-methylpyrazine-2-carboxamide], where the note is “Table 11, Chk1 only”, the pIC50 is 6.00 to 7.30.
On the same count and under the same terms, the value for `CNC(=O)c1nc(-c2cccc(CN[C@H](C(=O)OC)c3ccccc3)c2)cnc1N` [Example 429, methyl (2S)-{[(3-{5-amino-6-[(methylamino)carbonyl]pyrazin-2-yl}phenyl)methyl]amino}(phenyl)ethanoate] was 5.00 to 6.00.
In the case of `CNC(=O)c1nc(-c2cccc(C(=O)NNc3cc(F)ccc3F)c2)cnc1N` [Example 430, 3-amino-6-(3-{[2-(2,5-difluorophenyl)hydrazino]carbonyl}phenyl)-N-methylpyrazine-2-carboxamide], where the note is “Table 11, Chk1 only”, the negative-log IC50 (pIC50) is 6.00 to 7.30.
Turning to `CNC(=O)c1nc(-c2cccc(C(=O)NNc3c(F)c(F)c(C)c(F)c3F)c2)cnc1N` [Example 431, 3-amino-N-methyl-6-(3-{[2-(2,3,5,6-tetrafluoro-4-methylphenyl)hydrazino]carbonyl}phenyl)pyrazine-2-carboxamide], for the setting “Table 11, Chk1 only”, the negative-log IC50 (pIC50) was 6.00 to 7.30.
For the molecule `CNC(=O)c1nc(-c2cccc(C(=O)NNc3ccccc3F)c2)cnc1N` [Example 432, 3-amino-6-(3-{[2-(2-fluorophenyl)hydrazino]carbonyl}phenyl)-N-methylpyrazine-2-carboxamide], the pIC50 (Table 11, Chk1 only) was 6.00 to 7.30.
For the molecule `CNC(=O)c1nc(-c2cccc(C(=O)NNc3ccc(F)cc3F)c2)cnc1N` [Example 433, 3-amino-6-(3-{[2-(2,4-difluorophenyl)hydrazino]carbonyl}phenyl)-N-methylpyrazine-2-carboxamide], the negative logarithm of the IC50 (pIC50) (Table 11, Chk1 only) was 6.00 to 7.30.
Still for that read-out and setting: to `CNC(=O)c1nc(-c2cccc(C(=O)NNc3c(F)c(F)cc(F)c3F)c2)cnc1N` [Example 434, 3-amino-N-methyl-6-(3-{[2-(2,3,5,6-tetrafluorophenyl)hydrazino]carbonyl}phenyl)pyrazine-2-carboxamide] belongs 6.00 to 7.30.
As to `CNC(=O)c1nc(-c2cccc(CNCc3cnc(C)cn3)c2)cnc1N` [Example 435, 3-amino-N-methyl-6-[3-({[(5-methylpyrazin-2-yl)methyl]amino}methyl)phenyl]pyrazine-2-carboxamide], the pIC50 (Table 11, Chk1 only) is 6.00 to 7.30.
As to `CNC(=O)c1nc(-c2cccc(CN[C@H]3CCCc4ccccc43)c2)cnc1N` [Example 436, 3-amino-N-methyl-6-(3-{[(1S)-1,2,3,4-tetrahydronaphthalen-1-ylamino]methyl}phenyl)pyrazine-2-carboxamide], the pIC50 (Table 11, Chk1 only) was more than 7.30.
On to `CNC(=O)c1nc(-c2cccc(CN[C@H]3CCN(Cc4ccccc4)C3)c2)cnc1N` [Example 437, 3-amino-N-methyl-6-[3-({[(3S)-1-(phenylmethyl)pyrrolidin-3-yl]amino}methyl)phenyl]pyrazine-2-carboxamide], for which the pIC50 (Table 11, Chk1 only) was 6.00 to 7.30.
Take `CNC(=O)c1nc(-c2cccc(CN[C@@H]3CCN(Cc4ccccc4)C3)c2)cnc1N` [Example 438, 3-amino-N-methyl-6-[3-({[(3R)-1-(phenylmethyl)pyrrolidin-3-yl]amino}methyl)phenyl]pyrazine-2-carboxamide]: the pIC50 (Table 11, Chk1 only) was 6.00 to 7.30.
Same read-out and setting: to `CCN(Cc1ccccc1)Cc1cccc(-c2cnc(N)c(C(=O)NC)n2)c1` [Example 439, 3-amino-6-(3-{[ethyl(phenylmethyl)amino]methyl}phenyl)-N-methylpyrazine-2-carboxamide] belongs 6.00 to 7.30; to `CNC(=O)c1nc(-c2cccc(CN[C@H]3C[C@H]3c3ccccc3)c2)cnc1N` [Example 440, 3-amino-N-methyl-6-[3-({[(1S,2S)-2-phenylcyclopropyl]amino}methyl)phenyl]pyrazine-2-carboxamide], 6.00 to 7.30; to `CNC(=O)c1nc(-c2cccc(C(=O)NCc3ccccc3)c2)cnc1N` [Example 441, 3-Amino-6-(3-benzylcarbamoyl-phenyl)-pyrazine-2-carboxylic acid methylamide], 6.00 to 7.30.
Take `CNC(=O)c1nc(-c2cccc(-c3nc(-c4ccccc4)c[nH]3)c2)cnc1N` [Example 442, 3-amino-N-methyl-6-[3-(4-phenyl-1H-imidazol-2-yl)phenyl]pyrazine-2-carboxamide]: the pIC50 (Table 11, Chk1 only) is 6.00 to 7.30.
`CCCc1ccc(CNCc2cccc(-c3cnc(N)c(C(=O)NC)n3)c2)cc1` [Example 443, 3-amino-N-methyl-6-[3-({[(4-propylphenyl)methyl]amino}methyl)phenyl]pyrazine-2-carboxamide]: the negative-log IC50 (pIC50) (Table 11, Chk1 only) was 6.00 to 7.30.
As to `CNC(=O)c1nc(-c2cccc(CNCc3cc(Br)ccc3F)c2)cnc1N` [Example 444, 3-amino-6-[3-({[(5-bromo-2-fluorophenyl)methyl]amino}methyl)phenyl]-N-methylpyrazine-2-carboxamide], the pIC50 (Table 11, Chk1 only) was 6.00 to 7.30.
Still for that read-out and setting: the value for `CNC(=O)c1nc(-c2cccc(CN[C@@H]3CCc4ccccc4C3)c2)cnc1N` [Example 445, 3-amino-N-methyl-6-(3-{[(2R)-1,2,3,4-tetrahydronaphthalen-2-ylamino]methyl}phenyl)pyrazine-2-carboxamide] was more than 7.30; that for `CNC(=O)c1nc(-c2cccc(CNC(C)(C)c3ccccc3)c2)cnc1N` [Example 446, 3-amino-N-methyl-6-(3-{[(1-methyl-1-phenylethyl)amino]methyl}phenyl)pyrazine-2-carboxamide] was 6.00 to 7.30.
Same read-out and setting: to `CNC(=O)c1nc(-c2cccc(CNC3c4ccccc4-c4ccccc43)c2)cnc1N` [Example 447, 3-amino-6-{3-[(9H-fluoren-9-ylamino)methyl]phenyl}-N-methylpyrazine-2-carboxamide] belongs 5.00 to 6.00; to `CNC(=O)c1nc(-c2cccc(CNc3cccc4ccccc34)c2)cnc1N` [Example 448, 3-amino-N-methyl-6-{3-[(naphthalen-1-ylamino)methyl]phenyl}pyrazine-2-carboxamide], 6.00 to 7.30; to `CNC(=O)c1nc(-c2cccc(CNCc3ccc(-c4ccccc4)cc3F)c2)cnc1N` [Example 449, 3-amino-6-[3-({[(3-fluorobiphenyl-4-yl)methyl]amino}methyl)phenyl]-N-methylpyrazine-2-carboxamide], 6.00 to 7.30.
Take `CNC(=O)c1nc(-c2cccc(CNCc3ccc(-c4cccs4)cc3F)c2)cnc1N` [Example 450, 3-amino-6-{3-[({[2-fluoro-4-(2-thienyl)phenyl]methyl}amino)methyl]phenyl}-N-methylpyrazine-2-carboxamide]: the pIC50 (Table 11, Chk1 only) was more than 7.30.
Same read-out and setting: to `CNC(=O)c1nc(-c2cccc(CNCc3ccc(-c4ccco4)cc3F)c2)cnc1N` [Example 451, 3-amino-6-[3-({[(2-fluoro-4-furan-2-ylphenyl)methyl]amino}methyl)phenyl]-N-methylpyrazine-2-carboxamide] belongs more than 7.30; to `CNC(=O)c1nc(-c2cccc(CNc3ccc4ccccc4c3)c2)cnc1N` [Example 452, 3-amino-N-methyl-6-{3-[(naphthalen-2-ylamino)methyl]phenyl}pyrazine-2-carboxamide], 6.00 to 7.30.
On the same count and under the same terms, to `CNC(=O)c1nc(-c2cccc(CN[C@H]3c4ccccc4C[C@H]3O)c2)cnc1N` [Example 453, 3-amino-6-[3-({[(1S,2R)-2-hydroxy-2,3-dihydro-1H-inden-1-yl]amino}methyl)phenyl]-N-methylpyrazine-2-carboxamide] belongs more than 7.30.
In the case of `CNC(=O)c1nc(-c2cccc(CN[C@H]3CCc4ccccc4C3)c2)cnc1N` [Example 454, 3-amino-N-methyl-6-(3-{[(2S)-1,2,3,4-tetrahydronaphthalen-2-ylamino]methyl}phenyl)pyrazine-2-carboxamide], under “Table 11, Chk1 only”, the pIC50 was more than 7.30.

As usually defined, the pIC50 is the negative decadic logarithm of the IC50, by convention in mol/L.
